Experiment: physchem
Details: octanol/water

Compared with `c1cc(-c2ccc3c(c2)OCO3)ccc1OCCCN1CCCCC1`, `c1coc(-c2ccc(OCCCN3CCCCC3)cc2)c1` is lower in logD: 2.7 for the first, 2.3 for the second.

Going from `CCc1nc2ccccc2c(=O)n1-c1ccc(OCCCN2CCCC2)cc1` to `Cc1nc2ccccc2c(=O)n1-c1ccc(OCCCN2CCCC2)cc1`, the logD falls from 2.4 to 1.7.

First: Cn1c(-c2ccc(OC3CCN(C4CCC4)CC3)cc2)nc2c(F)cccc2c1=O
Second: COc1cccc2c(=O)n(C)c(-c3ccc(OC4CCN(C5CCC5)CC4)cc3)nc12
The logD of the first is higher: 2.4 for the first, 2.2 for the second.

Going from `CCn1c(-c2ccc(OCCCN3CCCCC3)cc2)nc2ccccc2c1=O` to `Cn1c(-c2ccc(OCCCN3CCCCC3)cc2)nc2ccccc2c1=O`, the logD falls from 2.6 to 2.2.

First: C[C@@H]1CCCN1CCc1ccc2nc(-c3ccc(-n4ccc(=O)cc4)cc3)ccc2c1
Second: C[C@@H]1CCCN1CCc1ccc2nc(-c3ccc(N4CCCCC4)cc3)ccc2c1
The logD of the first is higher: 3.4 for the first, 3.1 for the second.

`C[C@@H]1CCCN1CCc1ccc(-c2ccc(S(=O)(=O)NCc3ccncc3)cc2)cc1` and `CCNS(=O)(=O)c1ccc(-c2ccc(CCN3CCC[C@H]3C)cc2)cc1` are within 0.2 log units of each other in logD: 2.4 for the first, 2.3 for the second.

Compared with `CC1CCCN1CCc1ccc2nc(-c3ccoc3)ccc2c1` (stereo unspecified), `C[C@@H]1CCCN1CCc1ccc2nc(-c3cccnc3)ccc2c1` is lower in logD: 2.7 for the first, 2.5 for the second.

Compared with `c1ncc(-c2ccc(OCCCN3CCCCC3)cc2)o1`, `c1c[nH]c(-c2ccc(OCCCN3CCCCC3)cc2)n1` is higher in logD: 1.1 for the first, 1.6 for the second.

Going from `Cc1ccc(-c2cnc3nc(N4CCC(N5CCCCC5)CC4)sc3c2)cn1` to `Nc1ccc(-c2cnc3nc(N4CCC(N5CCCCC5)CC4)sc3c2)cn1`, the logD falls from 1.2 to 0.7.

Compared with `Cc1onc(-c2ccc(Cl)cc2)c1-c1ccc2cc(CCN3CCC[C@H]3C)ccc2n1`, `Cc1onc(-c2ccccc2)c1-c1ccc2cc(CCN3CCC[C@H]3C)ccc2n1` is lower in logD: 4.9 for the first, 4.2 for the second.

Compared with `C[C@@H]1CCCN1CCc1ccc2nc(-c3c(-c4ccccc4)nn(C)c3Cl)ccc2c1`, `Cc1cc(-c2ccc3cc(CCN4CCC[C@H]4C)ccc3n2)nc(-c2ccccc2)n1` is lower in logD: 4.7 for the first, 4.2 for the second.

`COc1ccc2nc(C)n(-c3ccc(OCCCN4CCCC4)cc3)c(=O)c2c1` and `COc1ccc2c(=O)n(-c3ccc(OCCCN4CCCC4)cc3)c(C)nc2c1` are the same in logD: 1.7 for the first, 1.7 for the second.

First: COc1cccc2c1OC(c1ccc(OCCCN3CCC[C@H](C)C3)cc1)C(C)S2(=O)=O (stereo partly specified)
Second: COc1cccc2c1OC(c1ccc(OCCCN3CCC[C@@H]3C)cc1)C(C)S2(=O)=O (stereo partly specified)
The logD of the first is higher: 3.3 for the first, 2.6 for the second.

Compared with `C[C@@H]1CCCN1CCc1ccc2nc(-c3ccn[nH]3)ccc2c1`, `C[C@@H]1CCCN1CCc1ccc2nc(-c3cn[nH]c3)ccc2c1` is lower in logD: 2.4 for the first, 2.1 for the second.

First: C[C@@H]1CCCN1CCc1ccc2nc(-c3nccs3)ccc2c1
Second: CC1CCCN1CCc1ccc2nc(-c3cccs3)ccc2c1 (stereo unspecified)
The logD of the first is lower: 2.5 for the first, 3.6 for the second.

`C[C@@H]1CCCN1CCc1ccc(-c2ccc(S(=O)(=O)NCC3CC3)cc2)cc1` and `C[C@@H]1CCCN1CCc1ccc(-c2ccc(S(=O)(=O)NC3CCC3)cc2)cc1` are within 0.2 log units of each other in logD: 2.8 for the first, 2.9 for the second.

`c1csc(-c2ccc(OCCCN3CCCCC3)cc2)c1` and `COc1ccccc1-c1ccc(OCCCN2CCCCC2)cc1` are within 0.2 log units of each other in logD: 2.8 for the first, 2.9 for the second.

First: CC(C)N1CCN(C(=O)N2CCC(Cc3ccccc3)CC2)CC1
Second: CC(C)N1CCN(C(=O)N2CC=C(c3ccccc3)CC2)CC1
The logD of the first is higher: 2 for the first, 1.4 for the second.

Going from `C[C@@H]1CCCN1CCc1ccc2nc(-c3ccc(Cl)nc3)ccc2c1` to `C[C@@H]1CCCN1CCc1ccc2nc(-c3ccncc3)ccc2c1`, the logD falls from 3.4 to 2.5.

Going from `Cc1nc(C)c(-c2ccc3cc(CCN4CCC[C@H]4C)ccc3n2)s1` to `Cc1n[nH]c(C)c1-c1ccc2cc(CCN3CCC[C@H]3C)ccc2n1`, the logD falls from 2.9 to 2.5.

`COc1ccc2c(=O)n(C)c(-c3ccc(OC4CCN(C5CCC5)CC4)cc3)nc2c1` and `COc1cccc2nc(-c3ccc(OC4CCN(C5CCC5)CC4)cc3)n(C)c(=O)c12` are the same in logD: 2.2 for the first, 2.2 for the second.

Going from `CC(C)N1CCN(C(=O)N2CCc3ccccc3C2)CC1` to `CC(C)N1CCN(C(=O)N2Cc3ccccc3C2)CC1`, the logD falls from 1 to 0.7.

`COc1cc(-c2cnc3nc(N4CCC(N5CCCCC5)CC4)sc3c2)ccn1` and `Fc1cc(-c2cnc3nc(N4CCC(N5CCCCC5)CC4)sc3c2)ccn1` are within 0.2 log units of each other in logD: 1.4 for the first, 1.5 for the second.

`C[C@H]1[C@H](c2ccc(OCCCN3CCCC3)cc2)Oc2ccccc2S1(=O)=O` and `COc1cccc2c1S(=O)(=O)C(C)C(c1ccc(OCCCN3CCCC3)cc1)O2` (stereo unspecified) are the same in logD: 2.2 for the first, 2.2 for the second.

Going from `C[C@@H]1CCCN1CCc1ccc2nc(-c3cnc4c(c3)OCO4)ccc2c1` to `COc1ncc(-c2ccc3cc(CCN4CCC[C@H]4C)ccc3n2)cn1`, the logD falls from 2.8 to 2.4.

First: Cc1nc(N2CCCC2)ncc1-c1ccc2cc(CCN3CCC[C@H]3C)ccc2n1
Second: Cc1cc2ncc(-c3ccc4cc(CCN5CCC[C@H]5C)ccc4n3)c(C)n2n1
The logD of the first is higher: 2.7 for the first, 2.5 for the second.

Going from `CCC(CO)NS(=O)(=O)c1ccc(-c2ccc(CCN3CCC[C@H]3C)cc2)cc1` (stereo partly specified) to `CCCNS(=O)(=O)c1ccc(-c2ccc(CCN3CCC[C@H]3C)cc2)cc1`, the logD rises from 2.3 to 2.8.

First: C1=C(c2ccc(OCCCN3CCCCC3)cc2)CCC1
Second: c1cc(C2CCCCO2)ccc1OCCCN1CCCCC1 (stereo unspecified)
The logD of the first is higher: 2.9 for the first, 2.1 for the second.

`C[C@@H]1CCCN1CCc1ccc2nc(-c3cncnc3)ccc2c1` and `C[C@@H]1CCCN1CCc1ccc2nc(-c3cnccn3)ccc2c1` are within 0.2 log units of each other in logD: 1.9 for the first, 1.8 for the second.

Compared with `COc1cccc2c1OC(c1ccc(OC3CCN(C4CCC4)CC3)cc1)C(C)S2(=O)=O` (stereo unspecified), `COc1cccc2c1OC(c1ccc(OCCCN3CCC[C@H]3C)cc1)C(C)S2(=O)=O` (stereo partly specified) is lower in logD: 3.3 for the first, 2.6 for the second.

Going from `Cc1cccc2c(=O)n(-c3ccc(OCCCN4CCCC4)cc3)c(C)nc12` to `Cc1nc2c(F)cccc2c(=O)n1-c1ccc(OCCCN2CCCC2)cc1`, the logD falls from 2.2 to 1.9.

Compared with `Nc1cnc(-c2cnc3nc(N4CCC(N5CCCCC5)CC4)sc3c2)cn1`, `c1ncc(-c2cnc3nc(N4CCC(N5CCCCC5)CC4)sc3c2)cn1` is higher in logD: -0.1 for the first, 0.3 for the second.

First: N#Cc1ccc(OC2CNC(C(=O)N3CCCN(C4CCC4)CC3)C2)cc1 (stereo unspecified)
Second: COC(=O)N1CC(Oc2ccc(F)cc2)CC1C(=O)N1CCCN(C2CCC2)CC1 (stereo unspecified)
The logD of the first is lower: -0.2 for the first, 1.8 for the second.

Compared with `C[C@@H]1CCCN1CCc1ccc2nc(-c3c(O)ccnc3C(F)(F)F)ccc2c1`, `C[C@@H]1CCCN1CCc1ccc2nc(-c3csc(-c4ccc(OCC(F)(F)F)nc4)n3)ccc2c1` is higher in logD: 3.6 for the first, 4.8 for the second.

Compared with `Cc1nc(-c2ccccn2)sc1-c1ccc2cc(CCN3CCC[C@H]3C)ccc2n1`, `Cc1nc(-c2ccncc2)sc1-c1ccc2cc(CCN3CCC[C@H]3C)ccc2n1` is lower in logD: 3.9 for the first, 3.5 for the second.

Compared with `Cc1c(-c2ccc3cc(CCN4CCC[C@H]4C)ccc3n2)cnn1-c1ccccn1`, `CCOc1ccc(-n2ncc(-c3ccc4cc(CCN5CCC[C@H]5C)ccc4n3)c2C)nn1` is higher in logD: 3.4 for the first, 3.8 for the second.

First: Cc1nc(-c2nc(-c3ccc4cc(CCN5CCC[C@H]5C)ccc4n3)cs2)cs1
Second: C[C@@H]1CCCN1CCc1ccc2nc(-c3csc(-c4cc(Cl)nc(Cl)c4)n3)ccc2c1
The logD of the first is lower: 3.6 for the first, 5 for the second.

Going from `CC(C)n1c(-c2ccc(OCCCN3CCCCC3)cc2)nc2ccccc2c1=O` to `Cc1ccc2c(=O)n(-c3ccc(OCCCN4CCCC4)cc3)c(C)nc2c1`, the logD falls from 3 to 2.2.

Going from `N#Cc1cncc(-c2cc3sc(N4CCC(N5CCCCC5)CC4)nc3cn2)c1` to `Fc1cc(-c2cc3sc(N4CCC(N5CCCCC5)CC4)nc3cn2)ccn1`, the logD rises from 1 to 1.7.

Going from `O=C(N1CCN(C2CCCC2)CC1)N1Cc2ccccc2C1` to `O=C(N1Cc2ccccc2C1)N1CCC[C@H]1CN1CCCC1`, the logD falls from 1.1 to 0.9.

Going from `Cc1c(-c2ccc3cc(CCN4CCC[C@H]4C)ccc3n2)cnn1-c1ccc(Cl)c(Cl)c1` to `Cc1c(-c2ccc3cc(CCN4CCC[C@H]4C)ccc3n2)cnn1-c1ccc(N(C)C)nn1`, the logD falls from 5.4 to 3.

First: C[C@@H]1CCCN1CCc1ccc(-c2ccc(S(=O)(=O)N3CCOCC3)cc2)cc1
Second: C[C@@H]1CCCN1CCc1ccc(-c2ccc(S(=O)(=O)N3CCS(=O)(=O)CC3)cc2)cc1
The logD of the first is higher: 1.9 for the first, 1.6 for the second.

Going from `C[C@@H]1CCCN1CCc1ccc2nc(C3CC3)ccc2c1` to `Cc1ccc2cc(CCN3CCC[C@H]3C)ccc2n1`, the logD falls from 2.7 to 2.

First: Cc1c(-c2ccc3cc(CCN4CCC[C@H]4C)ccc3n2)cnn1C
Second: C[C@@H]1CCCN1CCc1ccc2nc(-c3cc(Br)no3)ccc2c1
The logD of the first is lower: 2.5 for the first, 3.4 for the second.

Going from `Cc1nc2cccc(Cl)c2c(=O)n1-c1ccc(OCCCN2CCCC2)cc1` to `COc1cccc2nc(C)n(-c3ccc(OCCCN4CCCC4)cc3)c(=O)c12`, the logD falls from 2.4 to 1.7.

Compared with `Cn1c(-c2ccc(OC3CCN(C4CCC4)CC3)cc2)nc2c(C(F)(F)F)cccc2c1=O`, `Cn1c(-c2ccc(OC3CCN(C4CCCC4)CC3)cc2)nc2ccccc2c1=O` is lower in logD: 3.1 for the first, 2.6 for the second.

First: CC1COCC(C)N1S(=O)(=O)c1ccc(-c2ccc(CCN3CCC[C@H]3C)cc2)cc1 (stereo partly specified)
Second: Cc1ccc(-c2ccc(-c3ccc4cc(CCN5CCC[C@H]5C)ccc4n3)s2)s1
The logD of the first is lower: 2.6 for the first, 5.5 for the second.

First: Cc1c(-c2ccc3cc(CCN4CCC[C@H]4C)ccc3n2)sc2ncnn12
Second: Cc1c(-c2ccc3cc(CCN4CCC[C@H]4C)ccc3n2)sc2nc3ccccc3n12
The logD of the first is lower: 2.8 for the first, 4.5 for the second.

`COc1ccc(-c2cc3sc(N4CCC(N5CCCCC5)CC4)nc3cn2)cn1` and `Fc1ccc(-c2cc3sc(N4CCC(N5CCCCC5)CC4)nc3cn2)cn1` are within 0.2 log units of each other in logD: 1.6 for the first, 1.7 for the second.

Compared with `CCOC(=N)c1ccc(-c2ccc3cc(CCN4CCC[C@H]4C)ccc3n2)s1`, `Cc1nc(C)c(-c2ccc3cc(CCN4CCCC4C)ccc3n2)cc1C#N` (stereo unspecified) is lower in logD: 4.1 for the first, 2.9 for the second.

`C[C@H]1Sc2ccccc2O[C@@H]1c1ccc(OCCCN2CCCC2)cc1` and `O=C(c1ccccc1-c1ccc(OCCCN2CCCCC2)cc1)N1CCCCC1` are within 0.2 log units of each other in logD: 3.3 for the first, 3.2 for the second.

Going from `CN(Cc1ccc(-c2ccccc2)cc1)C(=O)N1CCC[C@H]1CN1CCCC1` to `O=C(NCc1ccc(C(F)(F)F)cc1)N1CCC[C@H]1CN1CCCC1`, the logD falls from 2.6 to 1.8.

`c1cc(N2CCCCC2)ccc1OCCCN1CCCCC1` and `c1cc(C2CCOCC2)ccc1OCCCN1CCCCC1` are within 0.2 log units of each other in logD: 1.7 for the first, 1.8 for the second.

Compared with `N#Cc1cc(-c2cnc3nc(N4CCC(N5CCCCC5)CC4)sc3c2)ccc1F`, `CCOC(=O)c1ccc(-c2ccc(OCCCN3CCCCC3)cc2)cc1` is higher in logD: 2.1 for the first, 3.1 for the second.

Going from `CC(C)N1CCN(C(=O)N2CCC(NC(=O)C3CCCC3)CC2)CC1` to `CC(C)N1CCN(C(=O)N2CCC(C(=O)N3CC4CCC(CC4)C3)CC2)CC1`, the logD rises from 0.2 to 0.9.

For `CC(C)N1CCN(C(=O)N2CCC(C(=O)OC(C)(C)C)CC2)CC1`, the logD was 0.6.
